One data set addresses T1, CYP2C8 (Homo sapiens, UniProt P10632).
T1 sequence (P10632 1-490): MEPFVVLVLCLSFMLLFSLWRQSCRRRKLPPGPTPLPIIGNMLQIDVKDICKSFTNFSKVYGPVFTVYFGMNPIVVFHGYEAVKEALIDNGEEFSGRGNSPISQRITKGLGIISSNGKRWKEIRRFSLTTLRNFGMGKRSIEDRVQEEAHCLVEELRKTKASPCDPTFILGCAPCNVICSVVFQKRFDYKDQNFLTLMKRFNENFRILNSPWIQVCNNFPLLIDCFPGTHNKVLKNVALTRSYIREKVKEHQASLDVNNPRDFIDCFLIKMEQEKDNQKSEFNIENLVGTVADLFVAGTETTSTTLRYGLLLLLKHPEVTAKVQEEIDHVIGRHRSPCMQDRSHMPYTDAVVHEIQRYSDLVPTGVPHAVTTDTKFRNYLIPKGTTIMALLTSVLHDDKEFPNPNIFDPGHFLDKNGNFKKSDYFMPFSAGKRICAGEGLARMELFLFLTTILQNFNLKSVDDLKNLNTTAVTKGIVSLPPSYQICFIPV
The data set is described as follows: Two-step luminescent P450 screen of luciferin derivatives. As to conditions: 50 µM substrate, 1 pmole P450, result in words.

The next data set deals with T2, CYP1A1 (Homo sapiens, UniProt P04798).
T2 sequence (P04798 1-512): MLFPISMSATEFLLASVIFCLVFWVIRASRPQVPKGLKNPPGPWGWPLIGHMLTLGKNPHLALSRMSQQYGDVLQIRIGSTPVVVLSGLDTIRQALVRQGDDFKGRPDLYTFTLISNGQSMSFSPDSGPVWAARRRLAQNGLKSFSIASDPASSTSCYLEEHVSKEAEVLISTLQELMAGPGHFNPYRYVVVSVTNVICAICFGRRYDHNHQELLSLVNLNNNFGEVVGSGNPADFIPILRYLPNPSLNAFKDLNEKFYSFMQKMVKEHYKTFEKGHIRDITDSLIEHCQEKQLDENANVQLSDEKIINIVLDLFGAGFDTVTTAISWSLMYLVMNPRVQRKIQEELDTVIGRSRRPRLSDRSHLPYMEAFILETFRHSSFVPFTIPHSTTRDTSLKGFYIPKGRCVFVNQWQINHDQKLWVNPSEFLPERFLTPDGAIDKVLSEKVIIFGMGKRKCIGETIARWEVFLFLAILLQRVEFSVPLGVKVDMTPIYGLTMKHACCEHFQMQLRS
Described as above. The note with it: 50 µM substrate, 1 pmole P450, 37°C 30 minutes; result in words.

The target in another data set is T3, CYP1A2 (Homo sapiens, UniProt P05177).
T3 construct: purchased Discovery Labware (BD/Gentest); host or cells: insect cell expression system (membrane fractions)
T3 sequence (P05177 2-516 limits assumed): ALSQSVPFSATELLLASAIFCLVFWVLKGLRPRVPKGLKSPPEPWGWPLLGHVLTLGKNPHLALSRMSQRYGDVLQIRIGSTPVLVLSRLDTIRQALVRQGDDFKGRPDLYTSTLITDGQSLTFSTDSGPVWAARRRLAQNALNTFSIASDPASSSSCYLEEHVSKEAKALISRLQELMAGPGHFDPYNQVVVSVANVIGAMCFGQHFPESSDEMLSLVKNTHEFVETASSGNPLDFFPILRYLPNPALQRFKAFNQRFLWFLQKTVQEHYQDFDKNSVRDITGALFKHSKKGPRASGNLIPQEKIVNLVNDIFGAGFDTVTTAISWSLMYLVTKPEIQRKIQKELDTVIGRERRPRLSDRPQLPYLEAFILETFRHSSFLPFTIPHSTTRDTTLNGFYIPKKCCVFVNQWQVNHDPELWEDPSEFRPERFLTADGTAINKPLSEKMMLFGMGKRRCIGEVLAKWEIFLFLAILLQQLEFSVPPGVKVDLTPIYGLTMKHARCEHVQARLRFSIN
Described as above. It counts as biochemical. The note with it: 50 µM substrate, 1 pmole P450, result in words. The protocol: (§1) P450s are Supersomes™ purchased from Discovery Labware (BD/Gentest). […] HLM is human liver microsomes.
(§2) 1X substrate concentration: 50 µM.

In another data set the target is T4, CYP4A11 (Homo sapiens, UniProt Q02928).
T4 construct: purchased Discovery Labware (BD/Gentest); host or cells: insect cell expression system (membrane fractions)
T4 sequence (Q02928 5-519): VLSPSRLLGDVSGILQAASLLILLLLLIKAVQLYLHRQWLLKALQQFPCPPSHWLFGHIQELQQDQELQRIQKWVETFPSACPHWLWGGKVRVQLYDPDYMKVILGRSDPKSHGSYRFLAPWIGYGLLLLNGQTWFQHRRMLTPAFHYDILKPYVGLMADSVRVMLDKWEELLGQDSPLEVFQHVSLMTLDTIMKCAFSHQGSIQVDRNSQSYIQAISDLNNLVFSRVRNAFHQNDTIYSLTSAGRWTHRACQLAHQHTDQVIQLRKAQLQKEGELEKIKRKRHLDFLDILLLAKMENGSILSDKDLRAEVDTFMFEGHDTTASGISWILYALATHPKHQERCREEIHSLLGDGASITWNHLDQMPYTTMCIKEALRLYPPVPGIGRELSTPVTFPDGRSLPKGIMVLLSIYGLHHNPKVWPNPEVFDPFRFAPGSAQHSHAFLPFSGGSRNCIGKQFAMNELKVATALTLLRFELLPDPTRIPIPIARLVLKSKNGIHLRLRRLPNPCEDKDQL
The description is as above. The data set is classed as biochemical. The note with it: result in words. As to the method: as §1, §2

The target in a further data set is T5, CYP2C9 (Homo sapiens, UniProt P11712).
T5 construct: purchased Discovery Labware (BD/Gentest); host or cells: insect cell expression system (membrane fractions)
T5 sequence (P11712 whole entry): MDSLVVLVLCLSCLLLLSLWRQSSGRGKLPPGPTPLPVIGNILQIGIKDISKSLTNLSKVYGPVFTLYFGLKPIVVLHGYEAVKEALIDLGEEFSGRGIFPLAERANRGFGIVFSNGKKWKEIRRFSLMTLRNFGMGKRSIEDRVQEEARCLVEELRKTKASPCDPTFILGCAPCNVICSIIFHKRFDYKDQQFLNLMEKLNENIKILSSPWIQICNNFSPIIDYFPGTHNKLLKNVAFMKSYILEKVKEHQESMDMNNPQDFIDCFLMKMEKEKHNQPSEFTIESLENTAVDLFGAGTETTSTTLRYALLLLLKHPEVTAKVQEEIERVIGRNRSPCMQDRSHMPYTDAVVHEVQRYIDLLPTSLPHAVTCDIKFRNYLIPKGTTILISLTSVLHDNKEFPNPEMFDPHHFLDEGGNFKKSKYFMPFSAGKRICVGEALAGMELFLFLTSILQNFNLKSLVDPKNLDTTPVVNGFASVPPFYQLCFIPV
The description is as above. The data set is classed as biochemical. As to conditions: 50 µM substrate, 1 pmole P450, result in words. As to the method:
as §1, §2

The next data set addresses T6, CYP2D6 (Homo sapiens, UniProt P10635).
T6 construct: purchased Discovery Labware (BD/Gentest); host or cells: insect cell expression system (membrane fractions)
The description is as above. The data set is classed as biochemical. As to conditions: for P450 activity / selectivity with the derivative as substrate: result in words. As to the method:
as §1, §2
(§3) For Figure 20, 1 or 5 picomoles of recombinant CYP2D6 or CYP2C19 membrane fractions from an insect cell expression system (SupersomesTM, Discovery Labware) were incubated at 37°C for 60 minutes with 200 µM D-luciferin 6' methyl ether (luciferin-ME) in 50 mM (CYP2C19) or 100 mM (CYP2D6) KPO4 (pH 7.4) with an NADPH regenerating system (as described above) in a volume of 50 µl. […] For Figure 20, the panel of human P450s was screened as described above.

For the next data set, the target named is T7, CYP2C19 (Homo sapiens, UniProt P33261).
T7 construct: purchased Discovery Labware (BD/Gentest); host or cells: insect cell expression system (membrane fractions)
T7 sequence (P33261 whole entry): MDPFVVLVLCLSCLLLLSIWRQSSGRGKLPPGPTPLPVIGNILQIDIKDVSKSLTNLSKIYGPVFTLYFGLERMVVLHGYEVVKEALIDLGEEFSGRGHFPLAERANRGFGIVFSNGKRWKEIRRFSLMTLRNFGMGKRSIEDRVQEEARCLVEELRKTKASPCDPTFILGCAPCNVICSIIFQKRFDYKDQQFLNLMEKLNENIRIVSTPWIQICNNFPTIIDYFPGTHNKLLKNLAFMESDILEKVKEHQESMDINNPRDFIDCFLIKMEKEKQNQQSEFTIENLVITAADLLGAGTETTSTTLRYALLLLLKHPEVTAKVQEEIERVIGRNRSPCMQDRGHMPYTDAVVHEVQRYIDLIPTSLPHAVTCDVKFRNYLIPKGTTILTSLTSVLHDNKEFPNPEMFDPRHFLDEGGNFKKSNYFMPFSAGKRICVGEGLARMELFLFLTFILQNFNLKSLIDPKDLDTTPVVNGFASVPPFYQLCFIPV
The data set is described as above. It counts as biochemical. As to conditions: for P450 activity / selectivity with the derivative as substrate: result in words. The protocol: as §1, §2, §3

The next data set concerns the target T8, QuantiLum Luciferase (Photinus pyralis, UniProt P08659).
T8 construct: purchased Promega Corporation E170
The data set is described as follows: Scaffolds: light emission of luciferin derivatives with QuantiLum luciferase alone, + Co A, + DTT, + Co A and DTT. It counts as biochemical, firefly. As to the method: The DTT, Coenzyme A, and QuantiLum stock solutions are the same as those described herein.
This solution was diluted 1:1 with water to produce an enzyme solution labeled "No addition." This solution was diluted 1:1 with 400 mM DTT, pH 8.0 to produce a solution labeled +DTT. This solution was diluted 1:1 with 4 mM Coenzyme A to produce a solution labeled + Co A. Finally, this solution was diluted 1:1 with a solution having both 4 mM Coenzyme A and 400 mM DTT to produce a solution labeled +Co A & DTT.
50 µl samples of these solutions were placed in the wells of luminometer microtiter plates, row A to row G, respeutivly. Row H of the plates was given 50 µl of water.
Reactions in these plates were initiated by addition of 50 µl of solution containing QuantiLum luciferase using a 12 channel micropipette. The solutions added to the rows were: columns 1, 5, and 9 - no addition solution; columns 2, 6, and 10 - + Co A solution; columns 3, 7, and 11 + DTT solution, and; columns 4, 8, and 12 - + Co A and DTT solution. After addition of the enzyme solution to the first row on every plate, a timer was started. After addition of the enzyme solution to the last row on each plate, the plate was sealed and read on a Veritas luminometer.

T8 sequence (P08659 whole entry): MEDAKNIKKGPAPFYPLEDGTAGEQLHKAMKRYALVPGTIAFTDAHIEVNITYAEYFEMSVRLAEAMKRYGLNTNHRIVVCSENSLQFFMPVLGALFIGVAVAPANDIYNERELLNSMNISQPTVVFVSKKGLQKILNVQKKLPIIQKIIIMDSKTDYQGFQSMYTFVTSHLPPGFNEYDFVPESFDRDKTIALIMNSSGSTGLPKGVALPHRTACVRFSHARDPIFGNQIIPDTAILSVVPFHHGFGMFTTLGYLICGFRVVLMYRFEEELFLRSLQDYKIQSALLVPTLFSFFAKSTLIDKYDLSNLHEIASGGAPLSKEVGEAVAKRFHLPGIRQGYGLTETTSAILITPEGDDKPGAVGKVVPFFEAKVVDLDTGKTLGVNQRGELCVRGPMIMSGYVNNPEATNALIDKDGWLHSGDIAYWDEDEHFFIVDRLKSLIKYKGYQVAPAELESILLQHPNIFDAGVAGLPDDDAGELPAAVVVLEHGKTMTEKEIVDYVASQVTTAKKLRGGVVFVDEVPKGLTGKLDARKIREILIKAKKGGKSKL
T6 sequence (P10635 whole entry): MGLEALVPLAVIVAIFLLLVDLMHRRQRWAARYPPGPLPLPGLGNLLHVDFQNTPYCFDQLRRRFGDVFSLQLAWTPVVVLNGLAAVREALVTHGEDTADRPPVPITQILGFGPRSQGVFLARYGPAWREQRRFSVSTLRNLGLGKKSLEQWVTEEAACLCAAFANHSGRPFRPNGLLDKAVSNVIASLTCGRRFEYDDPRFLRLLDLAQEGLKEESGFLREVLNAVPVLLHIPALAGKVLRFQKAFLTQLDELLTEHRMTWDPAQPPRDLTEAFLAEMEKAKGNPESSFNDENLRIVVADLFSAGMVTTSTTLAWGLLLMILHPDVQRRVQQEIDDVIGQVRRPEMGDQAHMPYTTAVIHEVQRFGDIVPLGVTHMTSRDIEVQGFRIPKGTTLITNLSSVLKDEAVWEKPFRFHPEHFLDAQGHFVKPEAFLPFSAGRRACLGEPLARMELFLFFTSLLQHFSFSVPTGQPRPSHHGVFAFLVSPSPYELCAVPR

With `COc1cc(OC)c2nc(C3=NC(C(=O)O)CS3)sc2c1` (centres unmarked) [4-(O-methyl)-6-(O-methyl)-luciferin], the “P450 activity / selectivity with the derivative as substrate” value (from here on “P450 activity / selectivity”) is recorded as “enhanced selectivity” at CYP2C8; “preferred substrate” on CYP2C8 (listed as line 12); “preferred substrate” on CYP1A1; “enhanced selectivity” at CYP1A2; “preferred substrate” at CYP1A2 (listed as line 12); “did not react” on CYP4A11. The “P450 activity / selectivity” value on CYP2C9 is “enhanced selectivity”; on CYP2C9 (listed as line 12), “preferred substrate”.

Turning to `COC(=O)[C@H]1CSC(c2nc3ccc(OC)cc3s2)=N1` [carboxyl ester of luciferin-ME, carboxyl methyl ester of luciferin-ME], the “P450 activity / selectivity” value on CYP2D6 was “substantially increased”; at CYP2C19, “reacted strongly”.

For the compound `COC(=O)[C@H]1CSC(c2nc3ccccc3s2)=N1` [carboxyl methyl ester of deoxyluciferin], at CYP2C19, the “P450 activity / selectivity” value is “substantial activity with CYP2C 19 and strong selectivity”.

Take `O=C(OCc1cccnc1)[C@H]1CSC(c2nc3ccccc3s2)=N1` [carboxyl picolinyl ester of luciferin-H, m-picolinyl ester of luciferin-H]: at CYP2C19 (purified recombinant CYP2C19 substantially free of carboxylesterases, 2 step assay), the “signal when the esterase was not added, relative to the plus esterase signal” value is “less than 10%”. Moreover, the “P450 activity / selectivity” value at CYP2C19, at CYP1A1 and on CYP1A2 was “showed preference” in each case.

Consider `COc1ccc2nc(C3=N[C@@H](C(=O)O)CS3)sc2c1` [luciferin 6-methyl ether, D-luciferin 6' methyl ether, reference compound], for which the light emission values on QuantiLum Luciferase (Derivative Conc. 1.07, Alone) is recorded as 1197; at QuantiLum Luciferase (Derivative Conc. 1.07, Co A), 1523; on QuantiLum Luciferase (Derivative Conc. 1.07, Co A + DTT), 3180; at QuantiLum Luciferase (Derivative Conc. 1.07, DTT) it was 3160; at QuantiLum Luciferase (Derivative Conc. 3.13, Alone), 1053; on QuantiLum Luciferase (Derivative Conc. 3.13, Co A), 1360. Besides, the light emission values on QuantiLum Luciferase (Derivative Conc. 3.13, Co A + DTT) came to 2853; on QuantiLum Luciferase (Derivative Conc. 3.13, DTT), 3332; on QuantiLum Luciferase (Derivative Conc. 6.25, Alone), 1240; at QuantiLum Luciferase (Derivative Conc. 6.25, Co A), 1673; on QuantiLum Luciferase (Derivative Conc. 6.25, Co A + DTT), 2882; on QuantiLum Luciferase (Derivative Conc. 6.25, DTT), 2844. The light emission values on QuantiLum Luciferase (Derivative Conc. 12.5, Alone) was determined as 1563; at QuantiLum Luciferase (Derivative Conc. 12.5, Co A), 1768; on QuantiLum Luciferase (Derivative Conc. 12.5, Co A + DTT), 2510; at QuantiLum Luciferase (Derivative Conc. 12.5, DTT), 2961; at QuantiLum Luciferase (Derivative Conc. 25, Alone), 2083; on QuantiLum Luciferase (Derivative Conc. 25, Co A), 2224. The light emission values is given as 2992 on QuantiLum Luciferase (Derivative Conc. 25, Co A + DTT); 3491 at QuantiLum Luciferase (Derivative Conc. 25, DTT); 2690 at QuantiLum Luciferase (Derivative Conc. 50, Alone); 2704 on QuantiLum Luciferase (Derivative Conc. 50, Co A); 3635 at QuantiLum Luciferase (Derivative Conc. 50, Co A + DTT); 4052 on QuantiLum Luciferase (Derivative Conc. 50, DTT). Besides, the light emission values worked out at 3589 at QuantiLum Luciferase (Derivative Conc. 100, Alone); 3389 on QuantiLum Luciferase (Derivative Conc. 100, Co A); 4550 at QuantiLum Luciferase (Derivative Conc. 100, Co A + DTT); 5399 at QuantiLum Luciferase (Derivative Conc. 100, DTT). For the same compound, the entries for the “P450 activity / selectivity” value on CYP2D6, on CYP2D6 (listed as Luciferin 6-methyl ether) and at CYP2C19 were “extremely low activity”, “some activity” and “some activity”, respectively.

For `COc1ccc2nc(C3=NC(C(=O)OCc4cccnc4)CS3)sc2c1` (centres unmarked) [m-picolinyl ester of luciferin methyl ether], on CYP2D6 (purified recombinant CYP2D6 substantially free of carboxylesterases, 2 step assay), the “signal when the esterase was not added, relative to the plus esterase signal” value is “less than 10%”. Further, the “P450 activity / selectivity” value on CYP2D6, at CYP1A1 and at CYP1A2 was “showed a preference” throughout.
